What was measured:
Assay type in all cases: in vivo, male C57/BL mice
[1] = tested on: MCAO model mice; test: Zea-Longa neurological function score in MCAO model mice
Description: (§1) Male C57/BL mice weighing 23±1 g were randomly divided into sham operation group (SHAM), model group (MCAO) and drug administration groups (50 mg/kg, 100 mg/kg, 200 mg/kg), with 6 mice in each group. Mice in the SHAM group underwent vascular isolation, but no […] was administered, and no treatment was given before or after surgery. The model group mice were constructed with ischemic MCAO models, and no treatment was given before and after surgery. The drug administration group was treated with compound 2 on the basis of the model group. Mice with a neurological score of 0 after reperfusion and those that died before 72 hours post-surgery were excluded. The drugs were administered through the tail vein at 0, 1, and 2 days after reperfusion. The SHAM group and MCAO group were given equal volumes of saline.
The neurological function score reflects the neurological injury status of MCAO model mice. After 24 hours of modeling, the neurological function score was performed (refer to the Zea-Longa scoring screening method). Mice with scores of 1-3 were successfully modeled, and those with scores of 0 and 4 were excluded.
In this experiment, the Zea-Longa scoring method was used to score the sham hand group (SHAM), model group (MCAO), compound 2 (50 mg/kg) group, compound 2 (100 mg/kg) group, and compound 2 (200 mg/kg) group. The main scoring time points were before surgery, day 1, day 2, and day 3.

[2] = tested on: IL-1β; test: RT-qPCR of IL-1β mRNA in brain tissue; conditions: 72 h, three days of administration, compound 2 100 mg/kg, P<0.01
Description: Grouping and administration method: Male C57/BL mice weighing 23±1 g were randomly divided into sham operation group (SHAM), model group (MCAO), compound 2 group (100 mg/kg), and compound 1 group (50 mg/kg), with 10 mice in each group. Mice in the SHAM group underwent vascular isolation, but no […] was administered, and no treatment was given before or after surgery. The model group mice were constructed with MCAO models and were not treated before and after surgery. The treatment group was treated with compound 2 or compound 1 on the basis of the model group. Mice with a neurological score of 0 after reperfusion and those that died before 72 hours post-surgery were excluded. […]
To investigate the effect of compounds on the expression of inflammatory factors after ischemia-reperfusion, this study used immunofluorescence experiments to observe the expression of TNF-α, IL-1β, IL-6, iNOS, and COX2 proteins in brain tissue. […] The concentrations of TNF-α, IL-1β, and IL-6 in brain homogenate were detected by enzyme-linked immunosorbent assay (ELISA), and the expression level of TNF-α protein in brain tissue was detected by Western blot.
After 72 hours of ischemia-reperfusion, the mRNA expression levels of TNF-α, IL-1β, IL-6, iNOS, and COX2 in brain tissue were detected and analyzed by RT-qPCR. […]

[3] = tested on: MCAO model mice; test: Survival curve after ischemia-reperfusion; conditions: 100 mg/kg tail vein
Description: (§2) Grouping and administration method: Male C57/BL mice weighing 23±1 g were randomly divided into sham operation group (SHAM), model group (MCAO), compound 2 group (100 mg/kg), and compound 1 group (50 mg/kg), with 10 mice in each group. Mice in the SHAM group underwent vascular isolation, but no […] was administered, and no treatment was given before or after surgery. The model group mice were constructed with MCAO models and were not treated before and after surgery. The treatment group was treated with compound 2 or compound 1 on the basis of the model group. Mice with a neurological score of 0 after reperfusion and those that died before 72 hours post-surgery were excluded. The administration time for animal behavior tests was seven times at 0 h, 1 day, 2 days, 3 days, 4 days, 5 days, and 6 days after reperfusion, while the administration time for other experiments was three times at 0 h, 1 day, and 2 days after reperfusion. The drug was administered through the tail vein, and the sham operation group and model group were given equal amounts of saline.
At the same time, the weight change and survival rate of mice after ischemia-reperfusion were analyzed.

[4] = tested on: MCAO model mice; test: Modified neurological severity score (mNSS, 14-point scale)
Description: as §2
In addition, the neurological deficit score (mNSS) method shown in the table above was used to score the neurological function of each group of mice on a 14-point scale. Neurobehavioral scores were assessed in mice of the SHAM group, MCAO group, Compound 2 group, and Compound 1 group on day 1, 3, 5, and 7 post-surgery. […]

[5] = tested on: MCAO model mice; test: Cerebral infarction volume by TTC staining in MCAO model mice; conditions: for Cerebral infarction volume reduced compared with the model group: mean±SEM
Description: as §1
The cerebral infarction volumes of the sham-hand group (SHAM), model group (MCAO), compound 2 (50 mg/kg) group, compound 2 (100 mg/kg) group, and compound 2 (200 mg/kg) group in Example 2 were detected by TTC staining. […] The cerebral infarction volumes of mice in the different concentration groups were different.

**Q.** `O=C(O)c1cc(OP(=O)(O)O)ccc1OP(=O)(O)O` [compound 2] was tested. Which “Zea-Longa neurological score compared with the model group” value ([1]; 24 hours of reperfusion, 50, 100, 200 mg/kg via tail vein) did it give?
**A.** no significant difference

**Q.** What about the “Zea-Longa neurological score compared with the model group” value ([1]; after 48 hours, 100 mg/kg via tail vein, P<0.001) of the same compound?
**A.** most significant decrease

**Q.** And the “Zea-Longa neurological score compared with the model group” value ([1]; after 48 hours, three concentrations (50, 100, 200 mg/kg) via tail vein)?
**A.** decreased significantly

**Q.** And the “Zea-Longa neurological score compared with the model group” value ([1]; after 72 hours of reperfusion, 100 mg/kg via tail vein, P<0.001)?
**A.** significantly decreased

**Q.** What about the “IL-1β mRNA expression compared with MCAO group” value [2] of the same compound?
**A.** significantly reduced

**Q.** And the “Mortality rate (survival curve) compared with MCAO group” value [3]?
**A.** significantly improved the mortality rate

**Q.** What about the “Neurological function (mNSS 14-point scale) compared with the compound 1 group” value ([4]; compound 2 100 mg/kg vs compound 1 50 mg/kg) of the same compound?
**A.** significantly improved

**Q.** And the “Neurological function (mNSS 14-point scale) compared with MCAO group” value ([4]; day 1 to day 7 of reperfusion, 100 mg/kg tail vein)?
**A.** improved significantly

**Q.** And the “Cerebral infarction volume reduced compared with the model group” value ([5]; 100 mg/kg via tail vein at 0, 1, 2 days after reperfusion, P<0.001)?
**A.** 27.17±5.18%

**Q.** And the “Cerebral infarction volume smaller at 100 mg/kg compared with 50 mg/kg” value ([5]; 100 mg/kg vs 50 mg/kg of compound 2, mean±SEM, P<0.05)?
**A.** 26.22±4.68%

**Q.** What about the “Cerebral infarction volume reduced compared with the model group” value ([5]; 200 mg/kg via tail vein at 0, 1, 2 days after reperfusion, P<0.05) of the same compound?
**A.** 16.19±3.56%

Reference: US20250352500A1, “USE OF PHENOLIC ACIDS DERIVATIVES IN TREATING ISCHEMIC STROKE” (LANZHOU UNIVERSITY, priority 2022, published 2025)
